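Five concentrations, 48 hours, 96-well plates. The concentration for full growth arrest is given as TGI.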 Where a SMILES comes first, the peptide text is derived from it. [ ]: non-standard residue; d: D form. The star is where a group is joined. Phe(4-NO2) = N[CH](Cc1ccc([N+](=O)[O-])cc1)C(=O)O; Cbz = O=C(OCc1ccccc1)*
Key:
Assay in all cases: growth of human tumour cells (NCI), 48 h
[1] = system: LOX IMVI melanoma
[2] = system: NCI-H460 lung
[3] = system: BT-549 breast
[4] = system: SF-539 CNS
[5] = system: NCI/ADR-RES ovarian
[6] = system: SF-295 CNS
[7] = system: OVCAR-5 ovarian
[8] = system: ACHN renal
[9] = system: HOP-62 NSCLC
[10] = system: MDA-N
[11] = system: PC-3 prostate
[12] = system: KM12 colon
[13] = system: HT29 colon
[14] = system: RXF 393 renal
[15] = system: NCI-H522 lung

Row | Structure (SMILES) | TGI [1] [µM] | TGI [2] [µM] | TGI [3] [µM] | TGI [4] [µM] | TGI [5] [µM] | TGI [6] [µM] | TGI [7] [µM] | TGI [8] [µM] | TGI [9] [µM] | TGI [10] [µM] | TGI [11] [µM] | TGI [12] [µM] | TGI [13] [µM] | TGI [14] [µM] | TGI [15] [µM]
1 | O=[N+]([O-])/C(C(Cl)=C(Cl)Cl)=C(\NCc1ccccc1)Sc1ccccc1 | 26.6 | > 100 | 38.7 | 38.9 | 69.7 | 41 | > 100 | > 100 | 57.1 | > 100 | > 100 | 36.9 | > 100 |  | 
2 | NC(N)=N/N=C/c1c(Cl)nc2n1CCS2 | > 100 | > 100 | > 100 | > 100 | > 100 | > 100 | > 100 | > 100 | > 100 | > 100 | > 100 | > 100 | > 100 | > 100 | > 100
3 | COC(=O)c1ccc(C)cc1C1CN=NC12Cc1c(C)cccc1C2=O (centres undefined) | > 70.7 | > 100 | > 70.1 | > 100 | 81.4 | > 100 | > 100 | > 100 | > 100 | > 100 | > 100 | > 84.8 | > 100 | > 100 | 97.4
4 | COc1ccc(/C=N/n2c(Cc3ccccc3)n[nH]c2=O)c(OC)c1 | > 85.3 | > 92.5 | > 49 | > 100 | 86.5 | > 61.4 | > 100 | > 56.5 | > 59.8 | > 100 | > 100 | > 100 | > 64.5 | > 63.2 | > 100
5 | CCOP(=O)(OCC)/C(C#N)=C/c1cccn1C | > 100 | > 100 | > 100 | > 100 | > 100 | > 100 | > 100 | > 100 | > 100 | > 100 | > 100 | > 100 | > 100 | > 100 | > 100
6 | NC(=S)N/N=C1\CCc2ccccc2C1 | > 100 | > 100 | > 100 | > 100 | > 100 | > 100 | > 100 | > 100 | > 100 | > 100 | > 100 | > 100 | > 100 | > 100 | > 100
7 | COP(=O)(OC)[C@@](O)(c1ccccc1)[C@@H](O)[C@@H](O)c1ccccc1 | 37.9 | > 100 | > 100 | > 100 | > 100 | > 100 | > 100 | > 100 |  | > 100 | > 100 | > 100 | > 100 | > 100 | > 100
8 | c1ccc(Nc2nnc(-c3ccccc3Nc3ccccc3-c3nnc(Nc4ccccc4)s3)s2)cc1 | > 100 | > 100 | > 100 | > 100 | > 100 | > 100 | > 100 | > 100 | > 100 | > 100 | > 100 | > 100 | > 100 | > 100 | > 100
9 | CC1CCC2C(C(=O)O[C@H]3C4C=CO[C@@H](OC5OC(CO)C(O)C(O)C5O)C4[C@@]4(CO)O[C@@H]34)=CO[C@@H](OC3OC(CO)C(O)C(O)C3O)C12 (some centres undefined) | > 10 | > 10 | > 10 | > 10 | > 10 | > 10 | > 10 | > 10 | > 10 | > 10 | > 10 | > 10 | > 10 | > 10 | > 10
10 | COc1ccc(-n2c(C)nc3ccc(NC4OCC(OC(C)=O)C(OC(C)=O)C4OC(C)=O)cc3c2=O)cc1 (centres undefined) | > 100 | > 100 | > 100 |  | > 100 | > 100 | > 100 | > 100 | > 100 | > 100 | > 100 | > 100 | > 100 | > 100 | > 100
11 | N#Cc1ccccc1NC(=O)C(O)C(O)C(O)C(O)C=O (centres undefined) | > 100 | > 100 | > 100 | > 100 | > 100 | > 100 | > 100 | > 100 |  | > 100 | > 100 | > 100 | > 100 | > 100 | > 100
12 | O=C(Cn1c(C(=O)/C=C/c2ccc(Cl)c(Cl)c2)nc2ccccc21)c1ccccc1 | 39.1 | 39.4 | 99.3 | 48.2 | 73 |  | 50.2 | 93.5 | > 100 | 47.2 | > 100 | 56.5 | 45.5 | 57.2 | 
13 | Cc1ccc2c(n1)C(=O)c1cc(C)c(C)cc1C2=O | > 100 | > 100 | > 100 | > 100 | > 100 | > 100 | > 100 | > 100 | > 100 | > 100 | > 100 | > 100 | > 100 | > 100 | 56.8
14 | CC(C)(C)c1cc(C(C)(C)C)c(SSc2c(C(C)(C)C)cc(C(C)(C)C)c(O)c2O)c(O)c1O | 23.6 | 13.2 | 28.3 |  | 70 |  | 31.3 | 26.6 |  | 23.9 | 28.5 | 25.4 | 31.5 | 47.2 | 16.6
15 | CCCCCCCCCCCC(=O)OCC(O)CO (centres undefined) | > 100 | > 100 | > 100 | > 100 | > 100 | > 100 | > 100 | > 100 | > 100 | > 100 | > 100 | 75.6 | > 100 |  | > 100
16 | COc1ccc(-n2c(C)nc3ccc(NC4OC(COC(C)=O)C(OC(C)=O)C(OC(C)=O)C4OC(C)=O)cc3c2=O)cc1 (centres undefined) | > 100 | > 100 | > 100 |  | > 100 | > 100 | > 100 | > 100 | > 100 | > 100 | > 100 | > 100 | > 100 | 87.4 | 47.5
17 | Clc1nc(NC23CC4CC(CC(C4)C2)C3)nc(NC23CC4CC(CC(C4)C2)C3)n1 | > 100 | > 100 | > 100 | > 100 | > 100 | > 100 | > 100 | > 100 | > 100 | > 100 | > 40.6 | > 100 | > 100 | > 80.2 | 
18 | CCOc1ccc(NC(=O)/C=C/c2ccco2)cc1 | > 100 | > 100 | > 100 | > 100 | > 100 | > 100 | > 100 | > 100 |  | > 100 | > 100 | > 100 | > 100 | > 100 | > 100
19 | NC(N)=NS(=O)(=O)c1ccc(NCc2cccc3c(=O)c4ccc(Cl)cc4oc23)cc1 | > 11.3 | 7.3 | > 14.4 | > 13.1 | > 14 | > 14.9 | > 18.9 | > 13.6 | > 18.9 | > 19.1 | > 14 | > 25 | > 14.6 | 7.17 | > 7.85
20 | CCCCCCCCCCCCCCCCNc1nc(=O)n(C2CC(O)C(COP(=O)(O)OC3CC(n4cc(F)c(=O)[nH]c4=O)OC3CO)O2)cc1F (centres undefined) | 17.1 | 22.6 | 35.3 | 0.956 | 46 | 18.9 | > 100 | > 100 | 5.4 | > 100 | > 78.6 | > 81.4 | 26.5 | 30.3 | 55.4
21 | CC(C)(C)C1CC[C@H](O)[C@H]([C@@H](O)CC2CC(=O)N(c3ccccc3)C(=O)C2)C1 (some centres undefined) | > 100 | > 100 | > 100 | > 100 | > 100 | > 100 | > 100 | > 100 | > 100 | > 100 | > 100 | > 100 | > 100 | > 100 | > 100
22 | COc1cc(C)cc2c1C(=O)C(NC(C)=O)=CC2=O |  | > 100 | > 100 | > 100 | > 100 | > 100 | > 100 | > 100 | > 100 | 32.8 | > 100 | > 100 | > 100 | > 100 | > 100
23 | CCOC(=O)CCC(NC(=O)OCc1ccccc1)C(=O)NC(CCC(=O)OCC)C(=O)NC(CCC(=O)OCC)C(=O)NC(CCC(=O)OCC)C(=O)NC(CCC(=O)OCC)C(=O)NC(Cc1ccc([N+](=O)[O-])cc1)C(=O)NC(CCC(=O)OCC)C(=O)NC(CCC(=O)OCC)C(=O)NC(CCC(=O)OCC)C(=O)NC(CCC(=O)OCC)C(=O)NC(CCC(=O)OCC)C(=O)OCC (centres undefined) (Cbz-E(OEt)E(OEt)E(OEt)E(OEt)E(OEt)[Phe(4-NO2)]E(OEt)E(OEt)E(OEt)E(OEt)E(OEt)-OEt; configuration not given here) | > 50 | > 50 | > 50 | > 50 | > 50 |  | > 50 | > 50 | > 50 | > 50 | > 50 | > 50 | > 50 | > 50 | > 50
24 | C1=C(c2ccccc2)NC2=N[C@H]3CCCC[C@@H]3N2C1c1ccccc1 (some centres undefined) | 29.6 | 25.3 | 24 |  | 28.7 | 25.7 | 26.3 | 26.6 |  | 29 | 23.9 | 22.9 | 14.8 |  | 
25 | CSc1cc(Cl)c(C(=O)Nc2ccccc2)cc1S(=O)(=O)n1cc[nH]c1=O | > 100 | > 100 | > 100 | > 100 | > 100 |  | > 100 | > 100 | > 100 | > 100 | > 100 | > 100 | > 100 | > 100 | > 100
26 | COc1cccc(-c2nc(N)c(C#N)c3c2CCS(=O)(=O)c2ccc(C)cc2-3)c1 | > 100 | > 100 | > 100 | > 100 | > 88 | > 100 | > 100 | > 100 | > 100 | > 42.6 | > 100 | > 58.4 | > 49.1 |  | > 25.6
27 | CCc1cn(C2CC(CO)C(CO)S2)c(=O)[nH]c1=O (centres undefined) | > 100 |  | > 100 | > 100 | > 100 | > 100 | > 100 | > 100 | > 100 | > 100 | > 100 | > 100 | > 100 | > 100 | > 100
28 | COC(=O)C1=CCC[C@H]2[C@@]1(COC(C)=O)CC[C@@H](C)[C@]2(C)CC(=O)c1ccoc1 | 24.7 | > 50 | 31.3 | 24.8 | > 50 | > 50 | > 50 | > 50 |  | > 50 | > 50 | > 50 | > 50 | > 50 | 22
29 | CC1=NN(c2ccccc2Cl)C2(C1)C(Cl)C(=O)N2c1nc2ccccc2s1 (centres undefined) | 33.7 | > 100 | > 100 |  | > 100 | > 100 | > 100 | > 100 | > 100 | > 100 | > 100 | > 100 | > 100 | > 100 | 35
30 | CC1(c2cccc(C(F)(F)F)c2)CC(c2cccc(C(F)(F)F)c2)=C(C#N)C(=C(C#N)C#N)N1 (centres undefined) | 34.1 | 45.8 | 40.9 | 34.9 | 43 | 31 | 32.8 | 31 | 32.7 | 33.6 | 34.7 | 32.9 | 36.2 | 31.4 | 
